The values that follow come from PubChem BioAssay (NCI).

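Results reflect a 48-hour exposure of cells in 96-well plates to compound at five concentrations. At the TGI there is no net growth.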

Some test systems named below: NCI-H522 lung; SK-MEL-5 melanoma; MDA-MB-231 breast; HS 578T breast; DU-145 prostate; UO-31 renal; RPMI-8226 leukemia; 786-0 renal; TK-10 renal; HT29 colon; PC-3 prostate.
Assay in all cases: growth of human tumour cells (NCI), 48 h

On to `O=C(OCc1ccccc1)C1(N2CN(C3(C(=O)OCc4ccccc4)CCCC3)CN(C3(C(=O)OCc4ccccc4)CCCC3)C2)CCCC1`, for which the TGI in the experiment with NCI-H522 lung, with SK-MEL-5 melanoma, with MDA-MB-231 breast, with HS 578T breast, in the experiment with DU-145 prostate and in the experiment on UO-31 renal was above 10 µM in each case. For the same compound, the TGI with RPMI-8226 leukemia, with 786-0 renal, in the experiment on TK-10 renal, in the experiment on HT29 colon and with PC-3 prostate was above 10 µM in each case.
Consider `COC(=O)n1c(=O)n(-c2ccccc2)c(=O)n1C(=O)OC`, for which the TGI with NCI-H522 lung, in the experiment with SK-MEL-5 melanoma, with MDA-MB-231 breast, with HS 578T breast, with DU-145 prostate and in the experiment with UO-31 renal was above 100 µM in each case. Further, the TGI in the experiment on RPMI-8226 leukemia, in the experiment with 786-0 renal, with TK-10 renal, in the experiment with HT29 colon and in the experiment with PC-3 prostate was above 100 µM throughout.
`CN(C)Cc1cc(O)c(O)c(CN(C)C)c1`: the TGI in the experiment on NCI-H522 lung, in the experiment with SK-MEL-5 melanoma, in the experiment with MDA-MB-231 breast, with HS 578T breast, with DU-145 prostate and with UO-31 renal was above 100 µM in each case. Besides, the TGI with RPMI-8226 leukemia, in the experiment with 786-0 renal, in the experiment with TK-10 renal, in the experiment with HT29 colon and with PC-3 prostate was above 100 µM each time.
Consider `O=C(CCCCCCCCC(=O)N1C(=O)CC(=O)N(c2cccc(Cl)c2)C1=S)N1C(=O)CC(=O)N(c2cccc(Cl)c2)C1=S`, for which the TGI with NCI-H522 lung was 71.1 µM; in the experiment on SK-MEL-5 melanoma, above 100 µM; with MDA-MB-231 breast, 84.3 µM; in the experiment with HS 578T breast it was above 100 µM; in the experiment on DU-145 prostate, above 100 µM; with UO-31 renal, above 100 µM. The TGI in the experiment with RPMI-8226 leukemia was above 100 µM; in the experiment on 786-0 renal, above 100 µM; in the experiment with TK-10 renal, above 100 µM; in the experiment with HT29 colon, above 100 µM; in the experiment on PC-3 prostate, 91.2 µM.
As for `CCOC(=O)/C=C(/C(=O)OCC)n1cc(C)c(=O)n(Cc2cn(COCCOC(C)=O)nn2)c1=O`, the TGI is 6.9 µM in the experiment on NCI-H522 lung; above 59.8 µM in the experiment with SK-MEL-5 melanoma; 50.9 µM in the experiment with MDA-MB-231 breast; above 78.3 µM with HS 578T breast; above 90.2 µM in the experiment with DU-145 prostate; 7.99 µM with UO-31 renal. In addition, the TGI in the experiment with RPMI-8226 leukemia is 57.7 µM; in the experiment on 786-0 renal, above 54.8 µM; in the experiment with TK-10 renal, 29.2 µM; in the experiment on HT29 colon it was 30.7 µM; in the experiment with PC-3 prostate, above 100 µM.
Regarding `Nc1ccccc1N/C=C\C(=O)C(Cl)(Cl)Cl`, the TGI in the experiment with NCI-H522 lung was above 100 µM; with SK-MEL-5 melanoma, above 100 µM; in the experiment with MDA-MB-231 breast it was above 100 µM; in the experiment with HS 578T breast it was above 100 µM; with DU-145 prostate, 75.1 µM; in the experiment on UO-31 renal, 62.6 µM. The TGI was 38 µM in the experiment on RPMI-8226 leukemia; 28.3 µM in the experiment on 786-0 renal; 71.9 µM with TK-10 renal; 34.6 µM in the experiment with HT29 colon; above 100 µM in the experiment with PC-3 prostate.
On to `O=C1c2c(nc3ccccc3c2-c2ccccc2)CN1Nc1ccccn1`, for which the TGI was above 100 µM in the experiment with NCI-H522 lung; above 100 µM in the experiment with SK-MEL-5 melanoma; above 100 µM in the experiment on MDA-MB-231 breast; 67.4 µM in the experiment on HS 578T breast; above 100 µM with DU-145 prostate; 51.6 µM in the experiment on UO-31 renal. Besides, the TGI in the experiment on RPMI-8226 leukemia was above 100 µM; in the experiment with 786-0 renal, above 93.1 µM; in the experiment on TK-10 renal, above 100 µM; with HT29 colon, above 100 µM; in the experiment with PC-3 prostate, above 100 µM.
Regarding `COc1cc(/C=C2\CCC(CN(C)C)C2=O)ccc1OC(=O)c1ccccc1` (stereo not given), the TGI in the experiment on NCI-H522 lung was 10.4 µM; in the experiment with SK-MEL-5 melanoma, 29.3 µM; with MDA-MB-231 breast, 19.1 µM; in the experiment with HS 578T breast it was 74.8 µM; in the experiment on DU-145 prostate, 29.8 µM; in the experiment with UO-31 renal, 29.8 µM. Besides, the TGI in the experiment with RPMI-8226 leukemia stood at 9.3 µM; in the experiment on 786-0 renal, 12.4 µM; in the experiment on TK-10 renal, 23.5 µM; with HT29 colon it was 26.6 µM; with PC-3 prostate, 30 µM.
Consider `NC(=O)c1ccc2c(c1)S(=O)(=O)c1ccccc1C2=O`, for which the TGI in the experiment with NCI-H522 lung, with SK-MEL-5 melanoma, with MDA-MB-231 breast, with HS 578T breast, in the experiment with DU-145 prostate and in the experiment with UO-31 renal was above 100 µM in each case. The TGI with RPMI-8226 leukemia, in the experiment with 786-0 renal, with TK-10 renal, in the experiment with HT29 colon and with PC-3 prostate was above 100 µM throughout.
Take `CCOC(=O)/C=C(\C(=O)OCC)n1ccc(N)nc1=O`: the TGI with NCI-H522 lung was 40.8 µM; in the experiment on SK-MEL-5 melanoma, above 100 µM; in the experiment with MDA-MB-231 breast it was above 100 µM; with HS 578T breast, above 100 µM; with DU-145 prostate, above 100 µM; with UO-31 renal, above 100 µM. For the same compound, the TGI in the experiment on RPMI-8226 leukemia, with 786-0 renal, in the experiment with TK-10 renal, with HT29 colon and in the experiment with PC-3 prostate was above 100 µM each time.
